Consider two compounds from US20100272773A1, “Use of Drug Polymorphs to Achieve Controlled Drug Delivery From a Coated Medical Device” (BOSTON SCIENTIFIC SCIMED, INC., priority 2009, published 2010).

A short description of the series: Calculated time for complete dissolution of Ptx transferred to the vessel. Type of series: physicochemical. The following applies: ~23 μg Ptx transferred to vessel divided by dissolution rate. The source says:
The ability to control the Ptx morphology on a drug coated balloon is important in achieving proper dosing. This is illustrated by the following example. […] Other factors such as particle size will also influence dissolution.

Each structure is given as a SMILES string.

Turning to `CC(=O)O[C@H]1C(=O)[C@@]2(C)[C@H]([C@H](OC(=O)c3ccccc3)[C@]3(O)C[C@H](OC(=O)[C@H](O)[C@@H](NC(=O)c4ccccc4)c4ccccc4)C(C)=C1C3(C)C)[C@]1(OC(C)=O)CO[C@@H]1C[C@@H]2O` [PTx 2H2O Crystalline, paclitaxel], the “Time for complete dissolution” value is recorded as “about 10 days”. As for `CC(=O)O[C@H]1C(=O)[C@@]2(C)[C@H]([C@H](OC(=O)c3ccccc3)[C@]3(O)C[C@H](OC(=O)[C@H](O)[C@@H](NC(=O)c4ccccc4)c4ccccc4)C(C)=C1C3(C)C)[C@]1(OC(C)=O)CO[C@@H]1C[C@@H]2O` [PTx Anhydrous Crystal, paclitaxel], the “Time for complete dissolution of the Ptx” value is recorded as “about 1 day”.
